Experimental data published in US8034242B2, “Dialysis device” (Linden Technologies, Inc., priority 2004, dated 2011).

System: plasma protein
Format: in vitro ADME, dog
Protocol: One dialysis device was used in an equilibrium dialysis study to measure plasma protein binding of warfarin. A 0.1 M warfarin solution was prepared by dissolving 0.154 g of warfarin in 5 ml of phosphate buffered salts (PBS). The pH was adjusted with 400 Tl of 6 M NaOH to a final volume of 5.761 ml and a final concentration of 86.8 mM. The warfarin solution was then diluted to 1 mM before adding to the plasma solution. 2.2 Tl of 1 mM warfarin was added to 2.2 ml plasma to make 1 TM final concentration of warfarin in the plasma. 1 ml of the warfarin-containing dog plasma was added inside the cylindrical membrane of each dialysis device and 1 ml of PBS to outside of the membrane. The filled device was placed in a 37° C. incubator with gentle shaking 100 Tl samples were withdrawn separately from the plasma and the buffer chambers at 0.5, 1, 2, 3, and 4 h intervals. To the plasma sample was added 100 μl of blank buffer. To the buffer sample was added 100 μl of blank plasma. After mixing, 50 μl of the plasma sample was withdrawn. To the plasma sample (50 μl) was added 450 μl of 1:1 ratio of plasma/buffer solution to make a 10-fold dilution. The sample from the buffer was not diluted. 200 μl acetonitrile was added to 200 μl each of the samples from plasma and the buffer. The mixtures were vortexed and then centrifuged at 13,000 rpm for 3 min. The resulting extracts were analyzed using an API-40003 LC/MS/MS system (Applied Biosciences/MDS SCIEX). […] The experiment was conducted in duplicate.

consistency of equilibrium curve (time to equilibrium): ≤ 1 h
dialysis reached equilibrium state (time): ≤ 30 min
ratio of protein binding (dog, 1 µM): ~99%
SMILES: CC(=O)CC(c1ccccc1)c1c(O)c2ccccc2oc1=O (stereo not drawn) [warfarin]
